The target of this assay is Tyrosine-protein kinase HCK (Homo sapiens) (UniProt P08631). Nature of the assay: HCK kinase inhibition, dose response, biochemical, Z'-LYTE, FRET readout, direct format (AID 1671291). The note with it: Z'-LYTE FRET peptide phosphorylation, recombinant HCK.
Sequence of Tyrosine-protein kinase HCK (Homo sapiens) (P08631 whole entry, looked up): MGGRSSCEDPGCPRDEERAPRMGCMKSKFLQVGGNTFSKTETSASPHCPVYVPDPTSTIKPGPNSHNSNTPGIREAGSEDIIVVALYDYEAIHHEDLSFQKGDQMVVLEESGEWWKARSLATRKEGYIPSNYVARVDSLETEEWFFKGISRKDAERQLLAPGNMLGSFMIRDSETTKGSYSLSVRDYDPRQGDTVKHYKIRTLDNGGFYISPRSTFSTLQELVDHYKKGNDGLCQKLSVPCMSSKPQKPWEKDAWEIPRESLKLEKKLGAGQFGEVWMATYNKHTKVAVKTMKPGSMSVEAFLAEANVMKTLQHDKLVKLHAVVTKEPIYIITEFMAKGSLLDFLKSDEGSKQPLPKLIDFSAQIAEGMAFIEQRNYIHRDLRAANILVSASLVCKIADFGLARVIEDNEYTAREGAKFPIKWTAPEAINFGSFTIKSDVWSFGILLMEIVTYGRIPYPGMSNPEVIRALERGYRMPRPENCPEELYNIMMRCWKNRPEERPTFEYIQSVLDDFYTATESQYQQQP

Take `COc1cc2ncnc(Nc3cccc(Cl)c3)c2cc1OC`: the half-maximal inhibitory concentration (IC50) was 943 nM.

By IC50 is commonly meant the concentration that gives 50% inhibition.

The values above are taken from PubChem BioAssay AID1671291.
